Test results taken from patent US4418068A, “Antiestrogenic and antiandrugenic benzothiophenes” (Eli Lilly and Company, priority 1981, dated 1983).

Key:
estrogenic response [1] = conditions: Black and Goode 1980; cited from earlier work
[2] = system: androgen-stimulated prostate growth; assay: Anti-Androgen Test, adult castrated male rats (ventral prostate weight); assay type: in vivo; conditions: Experiment A; androgen only, testosterone propionate 0.1 mg./day s.c., 7 days, castrated
Protocol: The antiandrogenic property of the compounds was evaluated in the following tests, in which the compound of Example 3 was used again.
(§1) The animals used in this test were adult male rats having a body weight which averaged about 330 g. when the experiment ended. All of the animals to be used in the experiment were castrated by the scrotal route, and were held untreated for 3 days. On the fourth day, subcutaneous administration of 0.1 mg./day of an exogenous androgen, testosterone propionate, was begun, and was continued for seven consecutive days. An untreated control group of animals received injections of 0.1 ml./day of corn oil as a blank treatment. The compound of this invention was administered orally or subcutaneously to the treated animals in 0.1 ml. of corn oil, at the same time that the androgen was administered. The animals were sacrificed 24 hours after the last injection of testosterone propionate, the ventral prostate glands were removed and weighed, and the mean of the weights of each treatment group was reported. The table below reports the mean weights resulting from administration of various doses of the compound along with androgen.
Each treatment group of animals in this experiment consisted of seven to nine animals, except for the untreated control group, which contained twelve animals.

[3] = system: androgen-stimulated prostate growth; assay: Anti-Androgen Test, immature male rats (ventral prostate weight); assay type: in vivo; conditions: androgen only 20 mcg./day s.c.
Protocol: as §1, with “reported.” for “reported. The table below reports the mean weights resulting from administration of various doses of the compound along with androgen.”
This experiment was carried out in the same manner as Experiment A above, except that the test animals were immature male rats, weighing about 120 g. each at sacrifice. Each treatment group consisted of six or seven animals. All treatments in this experiment were administered by subcutaneous injection. The amount of the androgen administered was only 20 mcg./day because of the small size of the animals.
This experiment was also conducted in immature rats having average body weight of about 115 g. when the experiment ended. In other respects, the experiment was as described under Experiment B above. The treatment groups consisted of ten animals each, except for the androgen only group, of 16 animals, and the 5 mg./kg. group, of nine animals.

estrogenic response [4] = assay: Estrogenic Response Test, immature rats (uterine weight); assay type: in vivo, immature 40-45 g. female rats; conditions: s.c.
Protocol: (§2) The first test reported below is used to determine the estrogenic potency of compounds. It is well known that many compounds having antiestrogenic activity also, typically, have estrogenic activity. As has been explained, estrogenic activity is a liability in an antiestrogen, and thus it is important to identify antiestrogens having a minimum amount of estrogenic activity. This test was conducted with immature 40-45 g. female rats, immature 11-13 g. mice, and adult ovariectomized mice. The rats were tested in groups of six, and mice in groups of ten. All of the laboratory animals were from standardized strains and were equilibrated to the laboratory before the test started. Each test was begun by administering the test compound daily for three days, as a subcutaneous injection or by oral gavage, as indicated below in the reports of individual experiments. Untreated control animals were included in each experiment, along with animals to which estradiol was administered subcutaneously. The estradiol-treated animals provided positive controls, showing the physiological effect of a potent estrogen on the individual group of animals used in the experiment. […] The test animals were treated for three days and sacrificed on the fourth day, and the uteri were removed, freed of extraneous tissue, and blotted with paper towels. The uteri were weighed to the nearest 0.1 mg. The tables below report the results of representative experiments. The doses of estradiol and of the compound of this invention are given as the total of the three daily doses. The uterine weights are given, in mg., as the means of all of the organ weights of the animals in a group. Compounds are referred to by their example numbers above.

estrogenic response [5] = assay: Estrogenic Response Test, immature mice (uterine weight); assay type: in vivo, immature 11-13 g. mice; conditions: Experiment D, s.c.
Protocol: as §2

estrogenic response [6] = assay: Estrogenic Response Test, mature ovariectomized mice (uterine weight); assay type: in vivo, adult ovariectomized mice; conditions: Experiment E, s.c.
Protocol: as §2

[7] = system: estrogenic response of estradiol; assay: Antiestrogenic Test, mature ovariectomized mice (uterine weight); assay type: in vivo, adult ovariectomized mice; conditions: Experiment A; estradiol alone 0.3 mcg., s.c.
Protocol: (§3) This test was conducted with immature 40-45 g. female rats, immature 11-13 g. mice, and adult ovariectomized mice. The rats were tested in groups of six, and mice in groups of ten. All of the laboratory animals were from standardized strains and were equilibrated to the laboratory before the test started. Each test was begun by administering the test compound daily for three days, as a subcutaneous injection or by oral gavage, as indicated below in the reports of individual experiments.
(§4) The test animals were treated for three days and sacrificed on the fourth day, and the uteri were removed, freed of extraneous tissue, and blotted with paper towels. The uteri were weighed to the nearest 0.1 mg.
(§5) The uterine weights are given, in mg., as the means of all of the organ weights of the animals in a group. Compounds are referred to by their example numbers above.
(§6) The same standardized types of laboratory animals which were used in the experiments described above were also used in these experiments. […] Untreated control animals were used in each experiment. […] The dosage and sacrifice schedule, and the method of determining uterine weights and reporting data, were the same as the methods described above under Test 1.

[8] = system: estrogenic response of estradiol; assay: Antiestrogenic Test, immature mice (uterine weight); assay type: in vivo; conditions: Experiment B; estradiol alone 0.3 mcg., s.c.
Protocol: as §3, §4, §5, §6

estrogenic response [9] = assay: Regression Test: reversal of established estrogenic response (uterine weight); assay type: in vivo, immature rats; conditions: estradiol alone 0.1 mcg./day s.c.
Protocol: The following test was carried out to determine if the compounds of this invention could reverse an estrogenic response, when administration of the compound was started after the estrogenic response had become established.
The test animals were immature rats, and all administrations were by subcutaneous injection.
The mean uterine weights of these groups of animals, respectively, were 97.9, 97.3, 119.9 and 112.3 mg.
The animals were sacrificed on the fifth day and their mean uterine weight was 56.4 mg.
The animals were sacrificed on the seventh day and their mean uterine weight was 57.0 mg.

[10] = system: estrogenic response of estradiol; assay: Antiestrogenic Test, immature rats (uterine weight); assay type: in vivo; conditions: Experiment I, 3 mg., s.c. + estradiol 0.3 mcg.
Protocol: as §3, §4, §5, §6

[11] = Stability of the product on observation after several days; assay type: physicochemical
[12] = system: DMBA-induced mammary tumors; assay: Tests Against DMBA-Induced mammary tumors; assay type: in vivo, adult female virgin rats; conditions: Experiment D
Text: Mammary tumors were induced in adult female virgin rats by a single 20-mg. oral dose of 7,12-dimethylbenzanthracene. Within about six weeks, visible and palpable tumors were present in the mammary tissue of the rats, and the rats were allocated into treatment and control groups in such a way that each group contained animals having approximately the same size and number of tumors. The size of the tumors was estimated by measuring their cross-sectional area. […]
[…] The treated animals received 1 mg./kg. per day of 6-methoxy-2-(4-hydroxyphenyl)-3-[4-(2-piperidinoethoxy)benzoyl]benzo[b]thiophene, hydrochloride, as a subcutaneous injection in corn oil. The animals were not ovariectomized at the end of the experiment.

uterine epithelial cells = conditions: known side-effect of earlier anti-estrogens; cited from earlier work
[13] = 1 mg./kg. per day s.c., fifth week

Structure (SMILES): O=C(c1ccc(OCCN2CCCC2)cc1)c1c(-c2ccc(O)cc2)sc2cc(O)ccc12 [6-hydroxy-2-(4-hydroxyphenyl)-3-[4-(2-pyrrolidinoethoxy)benzoyl]benzo[b]thiophene]
- antiestrogenic effectiveness vs tamoxifen or trioxifene (estrogenic response [1]): considerably more effective as an antiestrogen
- estrogenicity vs tamoxifen or trioxifene (estrogenic response [1]): considerably less estrogenic

Structure (SMILES): CCC(=O)O[C@H]1CC[C@H]2[C@@H]3CCC4=CC(=O)CC[C@]4(C)[C@H]3CC[C@]12C [Androgen, testosterone propionate, reference compound]
- Mean Prostate Weight [2]: 309 mg
- Mean Prostate Weight ([3]; Experiment B): 48.7 mg
- Mean Prostate Weight ([3]; Experiment C): 43.5 mg

Structure (SMILES): C[C@]12CC[C@@H]3c4ccc(O)cc4CC[C@H]3[C@@H]1CC[C@@H]2O [Estradiol, reference compound]
- Uterine weight (estrogenic response [4]; Experiment A, total dose 0.3 mcg.): 74.6 mg
- Uterine weight (estrogenic response [4]; Experiment B, total dose 0.3 mcg.): 56.8 mg
- Uterine weight (estrogenic response [4]; Experiment C, total dose 0.3 mcg.): 63.1 mg
- Uterine weight (estrogenic response [5]; total dose 0.03 mcg.): 33.3 mg
- Uterine weight (estrogenic response [5]; total dose 0.09 mcg.): 48.2 mg
- Uterine weight (estrogenic response [5]; total dose 0.3 mcg.): 50.3 mg
- Uterine weight (estrogenic response [6]; total dose 0.03 mcg.): 25.8 mg
- Uterine weight (estrogenic response [6]; total dose 0.1 mcg.): 44.2 mg
- Uterine weight (estrogenic response [6]; total dose 0.3 mcg.): 65.9 mg
- Uterine weight [7]: 65.9 mg
- Uterine weight [8]: 50.3 mg
- mean uterine weight (estrogenic response [9]; eight days): 112.3 mg
- mean uterine weight (estrogenic response [9]; four days): 97.3 mg
- mean uterine weight (estrogenic response [9]; six days): 119.9 mg
- mean uterine weight (estrogenic response [9]; three days): 97.9 mg

Structure (SMILES): O=C(O)C(F)(F)F.O=C(c1ccc(OCCN2CCCCC2)cc1)c1c(-c2ccc(OC(=O)C(F)(F)F)cc2)sc2cc(OC(=O)C(F)(F)F)ccc12 [Example 9, 6-trifluoroacetoxy-2-(4-trifluoroacetoxyphenyl)-3-[4-(2-piperidinoethoxy)benzoyl]benzo[b]thiophene, trifluoroacetate]
- Uterine weight (estrogenic response [4]; Experiment C, total dose 3 mg.): 31.3 mg
- Uterine weight [10]: 38.1 mg
- hydrolysis of ester groups [11]: some hydrolysis of one or both ester groups had occurred

Structure (SMILES): CC(=O)Oc1ccc(-c2sc3cc(OC(C)=O)ccc3c2C(=O)c2ccc(OCCN3CCCCC3)cc2)cc1 [Example 10, 6-acetoxy-2-(4-acetoxyphenyl)-3-[4-(2-piperidinoethoxy)benzoyl]benzo[b]thiophene]
- Uterine weight (estrogenic response [4]; Experiment C, total dose 3 mg.): 30.8 mg
- Uterine weight [10]: 32.2 mg

Structure (SMILES): CCCCCCCCCCCC(=O)Oc1ccc(-c2sc3cc(OC(=O)CCCCCCCCCCC)ccc3c2C(=O)c2ccc(OCCN3CCCCC3)cc2)cc1 [Example 11, 6-dodecanoyloxy-2-(4-dodecanoyloxyphenyl)3-[4-(2-piperidinoethoxy)benzoyl]benzo[b]thiophene]
- Uterine weight (estrogenic response [4]; Experiment C, total dose 3 mg.): 37.1 mg
- Uterine weight [10]: 40.0 mg

Structure (SMILES): CCOC(=O)Oc1ccc(-c2sc3cc(OC(=O)OCC)ccc3c2C(=O)c2ccc(OCCN3CCCCC3)cc2)cc1 [Example 12, 6-ethoxycarbonyloxy-2-(4-ethoxycarbonyloxyphenyl)-3-[4-(2-piperidinoethoxy)benzoyl]benzo[b]thiophene]
- Uterine weight (estrogenic response [4]; Experiment C, total dose 3 mg.): 35.8 mg
- Uterine weight [10]: 31.8 mg

Structure (SMILES): Cl.O=C(Oc1ccc(-c2sc3cc(OC(=O)c4ccccc4)ccc3c2C(=O)c2ccc(OCCN3CCCCC3)cc2)cc1)c1ccccc1 [Example 13, 6-benzoyloxy-2-(4-benzoyloxyphenyl)-3-[4-(2-piperidinoethoxy)benzoyl]benzo[b]thiophene, hydrochloride]
- Uterine weight (estrogenic response [4]; Experiment C, total dose 3 mg.): 39.6 mg
- Uterine weight [10]: 41.1 mg

Structure (SMILES): COc1ccc(-c2sc3cc(OC)ccc3c2C(=O)c2ccc(OCCN3CCCCC3)cc2)cc1.Cl [Example 14, 6-methoxy-2-(4-methoxyphenyl)-3-[4-(2-piperidinoethoxy)benzoyl]benzo[b]thiophene, hydrochloride]
- Uterine weight (estrogenic response [4]; Experiment C, total dose 3 mg.): 35.1 mg
- Uterine weight [10]: 37.5 mg

Structure (SMILES): COc1ccc2c(C(=O)c3ccc(OCCN4CCCCC4)cc3)c(-c3ccc(O)cc3)sc2c1.Cl [Example 19, 6-Methoxy-2-(4-hydroxyphenyl)-3-[4-(2-piperidinoethoxy)benzoyl]benzo[b]thiophene, hydrochloride]
- animals with completely regressed tumors ([12]; 1 mg./kg. per day s.c. in corn oil, fourth week): three of the eight treated animals had completely regressed
- completely regressed animals [12, 13]: three completely regressed animals
- tumor area, upper end of range (single tumor) [12, 13]: ≤ 1974 sq. mm.
- average tumor area, other seven treated animals ([12]; 1 mg./kg. per day s.c., fifth week, animal with burst tumors excluded): 398 square millimeters
- tumor area of one animal (largest) ([12]; 1 mg./kg. per day s.c., four weeks): 3764 sq. mm.
- average tumor area of the other seven animals ([12]; 1 mg./kg. per day s.c., four weeks, animal with 3764 sq. mm. ignored): 254 sq. mm.
- average total tumor area of the treated group ([12]; 1 mg./kg. per day s.c., four weeks, eight animals): 692 square millimeters

Structure (SMILES): CC/C(=C(\c1ccccc1)c1ccc(OCCN(C)C)cc1)c1ccccc1 [Tamoxifen, 1-(4-β-dimethylaminoethoxyphenyl)-1,2-diphenylbut-1-ene]
- effect on uterine epithelial cells (uterine epithelial cells): causes abnormal growth of uterine epithelial cells
